Columns and labels:
[1] = Bubble pressure tensiometry (dynamic surface tension, calculated CMC); assay type: physicochemical; conditions: bubble tensiometry
Procedure: Dynamic surface tensions of certain formulations were measured using a KRÜSS BP100 BPT Mobile bubble pressure tensiometer. Samples of the solution of Example 7 were tested by adding the test solution to a glass dish and lowering the disposable capillary tip and temperature probe into the solution. The dynamic setting was selected, and the instrument was set to collect 30 data points, the bubble age increasing from about 10 ms to about 30,000 ms.
Bubble tensiometry was used to calculate the Critical Micelle Concentration (CMC) value for each of the solutions.
FIG. 1 presents a comparison of the bubble age to surface tension for RM14A at CMC, sub-CMC, and super-CMC concentrations. FIG. 2 presents a comparison of the bubble age to surface tension for RM14B at CMC, sub-CMC, and super-CMC concentrations. FIG. 3 presents a comparison of the bubble age to surface tension for RM14C at CMC, sub-CMC, and super-CMC concentrations. FIG. 4 presents a comparison of the bubble age to surface tension for RM12A, RM13A, RM14A, and RM15A at super-CMC concentrations. FIG. 5 presents a comparison of the bubble age to surface tension for RM12A, RM13A, RM14A, and RM15A at CMC concentrations. FIG. 6 presents a comparison of the bubble age to surface tension for RM12A, RM13A, RM14A, and RM15A at CMC concentrations. FIG. 7 presents a comparison of bubble age to surface tension for RM12A, RM13A, RM14A, and RM15A at sub-CMC concentrations.

[2] = Conductivity testing (calculated CMC); assay type: physicochemical; conditions: for Calculated CMC, All Points: all data points; for Calculated CMC, Average: average of outer, inner, all points; for Calculated CMC, Inner Points: inner data points; for Calculated CMC, Outer Points: outer data points
Procedure: Conductivities were measured using a VWR 23609-216 Pure H2O Tester conductivity meter. The meter probe was submerged into the test solution and swirled gently. Once the meter settled, the value was recorded.
The conductivity of the solutions of Example 7 were tested at dilutions ranging from 0.1 M to 0.001 M. The data was plotted on a logarithmic scale and analyzed in the style of Heard and Ashworth. For each sample, three graphs were reported and fitted with a trend curve: outer data points, inner data points, all data points. […] An average CMC value was determined from the three trend samples (outer data points, inner data points, all data points) in order to more accuracy predict the CMC value.
LINEST was utilized to determine the slope and intercept for each line, and a combination of INTERCEPT and SLOPE was used to determine the intersection of the two fitted lines. The Critical Micelle Concentration (CMC) was determined for each of these plots by the intercept of the two lines. Set forth below in Table 5 is the calculated CMC for each graph and the average CMC.

Calculated CMC [1] [M]	Calculated CMC, All Points [2] [M]	Calculated CMC, Average [2] [M]	Calculated CMC, Inner Points [2] [M]	Calculated CMC, Outer Points [2] [M]	Compound
0.0200	0.0132	0.0123	0.0122	0.0115	N=C(NCCCCCCNC(=N)NC(=N)Nc1ccc(Cl)cc1)NC(=N)Nc1ccc(Cl)cc1.O=C(O)C(O)C(O)C(O)C(O)C(O)CO.O=C(O)C(O)C(O)C(O)C(O)C(O)CO [RM13A, Chlorhexidine di-α-glucoheptonate]
0.0167	0.0132	0.0132	0.0152	0.0113	N=C(NCCCCCCNC(=N)NC(=N)Nc1ccc(Cl)cc1)NC(=N)Nc1ccc(Cl)cc1.O=C(O)C(O)C(O)C(O)C(O)C(O)CO.O=C(O)C(O)C(O)C(O)C(O)C(O)CO [RM14B, Chlorhexidine di-β73-glucoheptonate]
0.0198	0.0130	0.0126	0.0134	0.0113	N=C(NCCCCCCNC(=N)NC(=N)Nc1ccc(Cl)cc1)NC(=N)Nc1ccc(Cl)cc1.O=C(O)C(O)C(O)C(O)C(O)C(O)CO.O=C(O)C(O)C(O)C(O)C(O)C(O)CO [RM13C, Chlorhexidine di-α-glucoheptonate]
0.0195	0.0133	0.0127	0.0131	0.0117	N=C(NCCCCCCNC(=N)NC(=N)Nc1ccc(Cl)cc1)NC(=N)Nc1ccc(Cl)cc1.O=C(O)[C@H](O)[C@@H](O)[C@H](O)[C@H](O)CO.O=C(O)[C@H](O)[C@@H](O)[C@H](O)[C@H](O)CO [RM12B, Chlorhexidine digluconate]
